Assay results published in patent EP0551200A1, “Protein phosphatase inhibitors for use in therapy” (priority 1992, dated 1993).

What was measured:
Format in all cases: cell-based
c-jun = experiment: Northern blot analysis of c-jun gene expression in human fibroblasts; details: OA 500 nM
Experimental: Quiescent human fibroblasts were incubated with TNF (500 units/ml) (a) or OA (500 nM) (b) for 0, 30, 60 min after which total cellular RNA was extracted. Blots of RNA from these cells were hybridized to radiolabeled (10⁶ cpm/ml) Egr-1 cDNA probe. c, the blot in b was stripped and reprobed with c-jun cDNA. Note: Egr-1 mRNA probe was not completely stripped from the blot. The autoradiograph of the blot is presented. d, regularly maintained cells were incubated wither with no additions (control, 0 time) or with OA for 1, 3, 5, 7 h and Northern analysis was carried out with an IL-6 cDNA probe (ATCC, Rockville, MD, US).
Preparation of RNA and Northern Analysis - Human fibroblasts (4 x 10⁶) were seeded in 175cm² tissue culture flasks and incubated at 37°C for 6 days in regular medium. The cells were fed with regular medium on day 3. On day 6 the medium was replaced by minimal essential medium containing 0.25% fetal calf serum and incubated for another 48 h to maintain the cells in a quiescent state. Quiescent or regularly maintained cells were treated with a specific agonist for the times indicated (see Fig. 7). The cells were harvested and total cytoplasmic RNA isolated by a one-step guanidinium thiocyanate/phenol/chloroform method. […] The blots were autoradiographed and quantitated by the Visage 2000 Image system (BioImage Products, Ann Arbor, MI, US).

human fibroblasts = experiment: Total cellular protein synthesis in human fibroblasts; details: data not shown
Experimental: (§1) Quiescent human fibroblasts were stimulated with MEM containing 0.5 µM okadaic acid in the presence or absence of cycloheximide (10 µg/ml) for the times indicated in Fig. 11. […] Treatment of cells with cycloheximide enhanced the induction of Egr-1 mRNA by okadaic acid at 1.5 and 3 h (Fig. 11). Similarly puromycin, like cycloheximide, also "superinduces" the induction of the Egr-1 mRNA by okadaic acid (data not shown). […] However, in view that protein phosphatase 1 (PP1) and protein phosphatase 2A (PP2A) regulate enzymes associated with cellular protein synthesis (Cohen, Annu. Rev. Biochem. 58, 453-508, 1989) the effect of okadaic acid on protein synthesis in mouse and human fibroblasts was also measured. […] By then the Egr-1 mRNA message was already induced. A corollary to this is a comparison of the amount of ³⁵S-methionine labelled Egr-1 protein immunoprecipitated by R5232 antibodies from protein phosphatase inhibitor-treated and control cells. […] Thus, the induction of the Egr-1 gene by phosphatase inhibitors is unlikely to be mediated by their late inhibitory effects on cellular protein synthesis.

mouse fibroblasts = experiment: Total cellular protein synthesis in mouse fibroblasts; details: data not shown
Experimental: as §1

C=C1[C@@H](O)[C@@H]2O[C@]3(CC[C@H](/C=C/[C@@H](C)[C@@H]4CC(C)=C[C@@]5(O[C@H](C[C@@](C)(O)C(=O)O)CC[C@H]5O)O4)O3)CC[C@H]2O[C@@H]1[C@@H](O)C[C@H](C)[C@H]1O[C@@]2(CCCCO2)CC[C@H]1C [okadaic acid]
time to induction of c-jun (c-jun): ≤ 60 min
effect on total cellular protein synthesis (in words) (human fibroblasts; 0.5 µM, first 2 h): little measurable effect
inhibition at 0.5 µM (human fibroblasts; Homo sapiens, Fibroblast, at 4 h): ≤ 50%
effect on total cellular protein synthesis (in words) (mouse fibroblasts; 0.5 µM, first 2 h): little measurable effect
inhibition at 0.5 µM (mouse fibroblasts; Mus musculus, Fibroblast, at 4 h): ≤ 50%
